In PMC10982999, “Structure-Guided Design and Optimization of Covalent VHL-Targeted Sulfonyl Fluoride PROTACs” (Journal of Medicinal Chemistry, 2024):
Where two headings read alike, the source gives them in different places.

What was measured:
[1] = target: T1, endogenous BRD4 in HEK293 cells (Homo sapiens, UniProt O60885); experiment: Endogenous BRD4 degradation, Western blot; assay type: cell-based; conditions: 18 h, read-out: BRD4 long isoform Dmax
T1 construct: endogenous in cells; host or cells: HEK293

[2] = target: T2, BRD4 (HEK293 HiBiT-BRD4 Cln3 cells) (Homo sapiens, UniProt O60885); experiment: BRD4 HiBiT degradation assay; assay type: cell-based
T2 construct: GSK; host or cells: HEK293 HiBiT-BRD4 Cln3
Method: Figure 3 (A) Structure of BRD-SF2. […] BRD4 and loading control GAPDH levels were visualized by Western blotting. […] (D) HEK293 HiBiT-BRD4 Cln3 cells were treated with epoxomicin (1 μM) for 3 h, followed by the respective PROTAC or VHL-SF2 dose-dependently (75–0.01 μM) for 18 h. […] (E) HEK293 HiBiT-BRD4 Cln3 cells were treated with MLN4924 (1 μM) for 3 h, followed by the respective PROTAC or VHL-SF2 dose-dependently (75–0.01 μM) for 18 h. […] (F) Structure of AR-VHL-SF2 and AR2-VHL-SF2. […] The data the show mean ± SEM (n = 3).
Cellular BRD4/AR HiBiT assay
The HiBiT tagged cells were seeded at 10,000 cells per well in a 384-well plate (Thermo Scientific, 164610) at 25 µL per well in DMEM media containing 10% FBS and incubated overnight. Compounds were dispensed using D300e Digital Dispenser (HP) and normalized to 0.1% DMSO. Cells were pre-treated with Epoxomicin or MLN4924 for 3 h before treatment or directly with the PROTAC degraders for 18 or 24 h. Nano -Glo HiBiT lytic detection assay was performed as described in the manufacturer protocol (Promega). 25 µL of premixed detection reagent was added to each well of the 384 well assay plate and incubated for 15 min on an orbital shaker (at 600 RPM), and luminescence was read using a PHERAstar FS plate reader (BMG Labtech). Corresponding background RLU values were subtracted from DMSO control values and the percentage of protein (%) of were then calculated against […]
DMSO-treated controls. […]

BRD4-HiBiT HEK293T cells = conditions: 18 h, 70-0.01 μM
[3] = target: T2, BRD4 (HEK293 HiBiT-BRD4 Cln3 cells); assay type: cell-based; conditions: 5 h treatment, PBS washing, 24 h recovery with excess VH032 (50 μM) vs standard treatment 29 h; from AUC of residual BRD4 long isoform
Method: To further investigate the potential advantage of a covalent VHL ligand, we performed a head-to-head comparison of BRD-SF2 and MZ-1 in a washout experiment.
BRD4 and loading control Tubulin levels were visualized by Western blotting. […] BRD4 and loading control Tubulin levels were visualized by Western blotting.
with BRD-SF2 and MZ1, followed by 3 cycles of PBS wash, where media was aspirated, and
PBS used to gently wash the cells before allowing 24 h recovery incubation in DMEM media
The control plate was run as
described above, but no washout was applied making the total incubation time 29 h (5 h + 24
h). The assay was performed and analysed as described above.

VCB protein = target: T3, VCB protein (Homo sapiens, UniProt P40337); experiment: Gel-based labelling of VHL (Neutravidin HRP blot); assay type: binding; conditions: 2 h at room temperature, 1-100 µM probe
T3 construct: human VHL (UniPort entry P40337, residues 1 -213); 6xHis followed by TEV site (N, cleaved yes); made in house; host or cells: E. coli One Shot BL21(DE3)
Method: (§1) To assess the ability of VHL-SF1 to covalently modify VHL, we initially developed a streptavidin shift assay in which we exposed recombinant human VCB, a stable complex of VHL protein with elongin C and elongin B, to VHL-SF1-Biotin. VHL biotinylation could then be directly quantified by the apparent shift in molecular weight observed when the sample was mixed with streptavidin and analyzed by an anti-VHL Western blot (Figure S2).[20] Through this assay, we concluded that 10 μM VHL-SF1-Biotin modified 32% VHL following 2 h of incubation at room temperature, which was further confirmed to be concentration-dependent with respect to the probe (Figure S3).
Figure S3. (A) Gel-based VHL labelling of VHL-SF1-Biotin, and (B) VHL-SF2-Biotin. […]
Figure S4. Dose-response of VHL-SF1 following a 2 h pre-incubation in the presence of VCB and FAM-conjugated HIF1α-derived peptide, assessed by fluorescence polarization. […]
VCB (11.1 mg/ mL) was diluted with PBS pH 7.4 (2 µg/ mL). […] 10 µL of each sample was loaded onto the gel and the bands were quantified […]
HEK293T cells were plated into two 6 well plates (in 1 mL media 10% FBS low glucose media) at a cell density of 1.0 x 10^6 cells/well 24 h before treatment. […] Proteins were separated by SDS -PAGE and further analyzed by immunoblotting. […]

[4] = target: T4, recombinant human VCB (VHL protein with elongin C and elongin B) (Homo sapiens, UniProt P40337); experiment: Gel-based streptavidin shift assay (anti-VHL Western blot); assay type: binding; conditions: 10 μM probe, 2 h incubation at room temperature
T4 construct: human VHL (UniPort entry P40337, residues 1 -213); 6xHis followed by TEV site (N, cleaved yes); made in house; host or cells: E. coli One Shot BL21(DE3)
Method: as §1
Figure S2. (A) Structure of VHL-SF-1-Biotin. (B) Structure of VHL-SF-2-Biotin. (C - E) Gel-based streptavidin shift assay of VHL-SF1-Biotin, and VHL-SF2-Biotin. VCB protein was pre-treated with DMSO, VHL-SF1-Biotin (10 μM) or VHL-SF2-Biotin (10 μM) for 2 h at room temperature prior to addition of streptavidin (10 μM, 10 min) at room temperature, after which protein was resolved on SDS-PAGE and visualised by VHL western blotting. (F) Quantification of VHL levels from western blot.
Docking analysis with Molecular Operating Environment (MOE)
Molecular modelling studies were conducted using the software Molecular Operating Environment 2019.01. […]

## COCC(COC)n1c(-c2cc(C)c(=O)n(C)c2)nc2cc(C3CCN(C(=O)COCCOCCOCCNC(=O)C[C@H](NC(=O)[C@@H]4C[C@@H](S(=O)(=O)F)CN4C(=O)[C@@H](c4cc(C)no4)C(C)C)c4ccc(-c5scnc5C)cc4)CC3)ccc21 [BRD-SF2, (3R,5S)-5-(((S)-1-(4-(1-(1,3-Dimethoxypropan-2-yl)-2-(1,5-dimethyl-6-oxo-1,6-dihydropyridin-3-yl)-1H-benzo[d]imidazole-5-yl)piperidin-1-yl)-15-(4-(4-methylthiazol-5-yl)phenyl)-1,13-dioxo-3,6,9-trioxa-12-azapentadecan-15-yl)carbamoyl)-1-((R)-3-methyl-2-(3-methylisoxazol-5-yl)butanoyl)pyrrolidine-3-sulfonyl fluoride]
[1]
  Dmax: 50%
[2]; HEK293, read-out: Dmax (BRD4 degradation)
  Dmax: 60%
[2]; MLN4924 1 μM 3 h pretreatment, then compound 18 h
  BRD4 depletion in presence of NEDDylation inhibitor MLN4924: not depleted
[2]; epoxomicin 1 μM 3 h pretreatment, then compound 18 h
  BRD4 depletion in presence of proteasome inhibitor epoxomicin: not depleted
[2]; read-out: BRD4 DC50
  DC50: 17 µM
[2]; read-out: DC50 (BRD4 degradation), 18 h incubation
  DC50: 17.2 µM
BRD4-HiBiT HEK293T cells
  cytotoxicity (CellTiter-Glo): no evidence of cytotoxicity
[3]
  relative decrease in degradation activity after washout: 27%

## (3R,5S)-1-((S)-2-(tert-Butyl)-4,16-dioxo-20-((3aS,4R,6aR)-2-oxohexahydro-1H-thieno[3,4-d]imidazole-4-yl)-6,9,12-trioxa-3,15-diazaicosanoyl)-5-((4-(4-methylthiazol-5-yl)benzyl)carbamoyl-)pyrrolidine-3-sulfonyl fluoride [VHL-SF1-Biotin]
VCB protein
  VHL labelling with respect to probe concentration: concentration-dependent
[4]
  VHL modified (VHL biotinylation, streptavidin shift): 32%
